Source: patent publication US12263248B2, “Compounds and compositions for intracellular delivery of therapeutic agents” (ModernaTX, Inc., priority 2018, dated 2025)

Columns and labels:
hEPO mRNA = assay: hEPO expression after intravenous administration to rats; format: in vivo, rat; details: for hEPO expression: rat; for Lipid/MC3 hEPO conc. ratio 0.2 mpk / Lipid/MC3 hEPO conc. ratio 2 mpk: rats
How it was run: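 Rats dosed intravenously once with nanoparticle composition, 0.2 or 2.0 mpk, formulated by the standard MC3 method. Tail-vein blood sampled at 6 h or at time points from 0.25 to 48 h. hEPO measured by ELISA.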

[1] = Residual lipid levels in rat liver and spleen (UPLC-MS); format: in vivo; details: for % Lipid Remaining in liver, 48 h / % remaining dose in liver, 48 h: rats; for % Lipid Remaining in liver, 48 h: 2 mpk, assuming 300 g rat and 15 g liver; for % remaining dose in liver, 48 h: intravenous, 2.0 mpk
How it was run: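 Rats received a single intravenous dose of lipid nanoparticle composition, and liver tissue was later collected to quantify residual lipid. Weighed tissue was homogenized in Milli-Q water (900 μL per 100 mg tissue) using an Omni probe homogenizer. 50 μL aliquots were mixed with 400 μL spiking solution, vortexed, centrifuged, and analyzed by UPLC on a C8 column with positive-mode ESI detection on a Sciex API5500 mass spectrometer.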

Row | SMILES | hEPO expression (hEPO mRNA; 6 h, 2 mpk, i.v.) [pg/mL] | Lipid/MC3 hEPO conc. ratio 0.2 mpk (hEPO mRNA; intravenous, 0.2 mpk, 6 hours) | Lipid/MC3 hEPO conc. ratio 2 mpk (hEPO mRNA; intravenous, 2 mpk, 6 hours) | % Lipid Remaining in liver, 48 h [1] [%] | % remaining dose in liver, 48 h [1] [%] | AUC (hEPO) (hEPO mRNA; Table 19B) [pg·h/mL] | Lipid/MC3 ([hEPO] ratio) (hEPO mRNA; Table 19B, relative to MC3) | Lipid/MC3 AUC (hEPO mRNA; Table 19B, relative to MC3) | [hEPO] (hEPO mRNA; Table 19B, species, dose and time not given) [pg/mL] | % dose remaining, liver, 24 h ([1]; Table 19B, liver, 24 h) [%] | hEPO expression (hEPO mRNA; intravenous, 0.2 mpk, 6 hours) [pg/mL] | hEPO expression (hEPO mRNA; intravenous, 2 mpk, 6 hours) [pg/mL]
1 | CCCCCCCCCN(CCO)CCCCCCCC(=O)OC(CCCCCCCC)CCCCCCCC [Compound 3, Heptadecan-9-yl 8-((2-hydroxyethyl)(nonyl)amino)octanoate] | 1.74e+07 | 2.41 | 1.21 | 14 | 14.2 |  |  |  |  |  |  | 
2 | CCCCCCCCCOC(=O)CCCCCCCN(CCO)CCCCCCCCCC(=O)OC(CCCCCC)CCCCCC [Compound 147, Tridecan-7-yl 10-((2-hydroxyethyl)(8-(nonyloxy)-8-oxooctyl)amino)decanoate] |  |  |  |  |  | 7.28e+07 | 3.69 | 3.94 | 5.45e+06 | 0.00 |  | 
3 | CCCCCCCCC(CCC)OC(=O)CCCCCCCN(CCO)CCCCCCCC(=O)OC(CCCCCCCC)CCCCCCCC (centres unmarked) [Compound 50, dodecan-4-yl 8-((8-(heptadecan-9-yloxy)-8-oxooctyl)(2-hydroxyethyl)amino)octanoate] |  | 3.41 | 3.03 | 15.9 |  |  |  |  |  |  | 2.62e+06 | 2.81e+07
4 | CCCCCC/C=C\COC(=O)CCCCCCCN(CCO)CCCCCCCC(=O)OC(CCCCCCCC)CCCCCCCC [Compound 24, Heptadecan-9-yl (Z)-8_((2-hydroxyethyl) (8-(non-2-en-1-yloxy)-8-oxooctyl)amino)octanoate] | 1.44e+07 | 1.75 | 1.01 | 0.016 | <1 |  |  |  |  |  |  | 
